pIC50: −log10 of the molar value. Like-named read-outs stand apart in the source and are kept apart here.
Columns and labels:
β-Glucuronidase (GUS) = target: T1, β-Glucuronidase (GUS) (Escherichia coli, UniProt P05804); format: biochemical, E. coli
T1 construct: purchased Sigma-Aldrich type VII-A (catalogue number not given)
Protocol: For this, all of these substrates were dissolved separately with sodium phosphate buffer (75 mM, pH 8). […] 20 μL of GUS (final concentration of 1 U/mL) was then added into each well and incubated for 30 min to allow color development. The absorbance at 610, 400, and 380 nm was then measured using a TECAN M1000 plate reader. A digital camera was also used to take a photograph of the plate. […] (0-10 mM), and FeCl3 (2 mM) were entrapped on paper as described previous section (FIG. 13b). The sensor was then immersed into GUS solution (1 U/mL) and removed as soon as the Gus solution has reached the sensing region through FeCl3 zone followed by a certain incubation time (5, 30, and 60 min) at room temperature.
Experiments were conducted firstly in 96-well plate, in which GUS (final concentration of 1 U/mL) was entrapped in silica gel. […] (4 mM) and oxidizing agents (1 mM each) were then added to each well (designated for the individual oxidizing agent), and incubated for 30 min. The concentration gradient (0-30 mM) of FeCl3 was also observed in 96-well plate. The absorbance at 610 was measured using a TECAN M1000 plate reader for each experiment. A digital camera was also used to take a photograph of the plate. […] (3 mM) were entrapped on paper using biocompatible silica material in order to make the sensor strips, as described in the previous section. The performance of the sensor was then assayed by dipping it into the GUS solution (1 U/mL) to allow the enzyme solution to reach the sensing zone through FeCl3 zone via lateral flow. The color development times tested were 5, 30, and 60 min.

[1] = target: T2, acetylcholinesterase (AChE) (Electrophorus electricus, UniProt O42275); details: read-out: KM, literature value; cited from earlier work
T2 sequence (O42275 24-633): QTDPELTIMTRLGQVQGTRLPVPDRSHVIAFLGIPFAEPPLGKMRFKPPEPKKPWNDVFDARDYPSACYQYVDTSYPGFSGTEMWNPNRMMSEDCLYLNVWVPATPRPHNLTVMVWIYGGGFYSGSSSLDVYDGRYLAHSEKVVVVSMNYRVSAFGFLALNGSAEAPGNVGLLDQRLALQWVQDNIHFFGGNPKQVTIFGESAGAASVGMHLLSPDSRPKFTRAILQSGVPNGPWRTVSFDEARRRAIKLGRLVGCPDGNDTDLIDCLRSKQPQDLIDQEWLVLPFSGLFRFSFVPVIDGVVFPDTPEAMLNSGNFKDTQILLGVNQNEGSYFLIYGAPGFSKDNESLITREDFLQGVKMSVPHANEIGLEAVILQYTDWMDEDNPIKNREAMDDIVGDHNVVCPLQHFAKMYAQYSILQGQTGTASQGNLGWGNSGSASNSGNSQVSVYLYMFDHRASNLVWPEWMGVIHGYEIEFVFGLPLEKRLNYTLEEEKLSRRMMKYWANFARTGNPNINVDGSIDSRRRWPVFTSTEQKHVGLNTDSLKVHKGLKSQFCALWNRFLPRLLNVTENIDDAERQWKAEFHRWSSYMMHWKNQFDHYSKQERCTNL

[2] = target: T2, acetylcholinesterase (AChE); assay: biochemical; format: biochemical; parameters: purchased Sigma-Aldrich; details: for apparent saturated inhibition concentration / LOD: IPA lateral flow sensor; for detection limit (LOD): S/N=3, IPA lateral flow sensor
Protocol: 20 μL of IPA (0˜5 mM) was then added into each well and incubated for 5 min to allow color development. The absorbance at 640 nm was then measured using a TECAN plate reader.
The performance of the sensor under optimized conditions can be assessed in two ways: (1) directly (normal lateral flow-based chromatography) without incubating the contaminated sample, and (2) inverted lateral flow-based chromatography with incubation of the sample. For the latter case, after incubation 5 min at room temperature, the sensor was inverted again and immersed into dH2O for bringing up IPA by lateral flow action into sensing area of the strip above the liquid level.
The sensor was then inverted again and immersed into dH2O to bring up IPA by lateral flow action into the sensing area of the strip above the liquid level. The color intensity was determined by analyzing a digital image with the ImageJ software as described above.

[3] = target: T2, acetylcholinesterase (AChE); format: biochemical; parameters: purchased Sigma-Aldrich
[4] = target: T2, acetylcholinesterase (AChE); assay: Ellman colorimetric assay on ink jet printed PVAm/silica/AChE+DTNB/silica paper sensor
Protocol: The performance can be assessed in two ways: a) by direct addition of substrate solution to sensing area, and b) by immersion into the substrate solution. […] However, in the case of direct analyte addition, only small amounts of reagent are needed (5 μL) relative to dipstick sensors (˜2 mL), reducing cost per assay. […] The color intensity of the sensing areas was quantified by obtaining a digital image (Canon A630, 8.0 MegaPixel operated in automatic mode with no flash and with the macroimaging setting on) and using ImageJ™ software to analyze the jpeg images. ImageJ™ software uses a […] color scale and for image processing the images were inverted so that areas that were originally white became black and corresponded to a color intensity of zero and while areas that were originally black became white and corresponded to […]. Based on this scale, increases in the amount of yellow color cause an increase in color intensity of the sensor strips. To account for variations in color intensity owing to differences in environmental illumination, a background subtraction (color intensity of the paper surface closest to the sensing area) was done for each data point.
The intensity was determined by analyzing a digital image with the ImageJ software as described above.

[5] = target: T2, acetylcholinesterase (AChE); format: biochemical; parameters: purchased Sigma-Aldrich; details: milk and apple juice samples (pH adjusted 7-8)
[6] = target: T2, acetylcholinesterase (AChE); format: biochemical; parameters: purchased Sigma-Aldrich; remark: listed apart in the source

T1 sequence (P05804 whole entry): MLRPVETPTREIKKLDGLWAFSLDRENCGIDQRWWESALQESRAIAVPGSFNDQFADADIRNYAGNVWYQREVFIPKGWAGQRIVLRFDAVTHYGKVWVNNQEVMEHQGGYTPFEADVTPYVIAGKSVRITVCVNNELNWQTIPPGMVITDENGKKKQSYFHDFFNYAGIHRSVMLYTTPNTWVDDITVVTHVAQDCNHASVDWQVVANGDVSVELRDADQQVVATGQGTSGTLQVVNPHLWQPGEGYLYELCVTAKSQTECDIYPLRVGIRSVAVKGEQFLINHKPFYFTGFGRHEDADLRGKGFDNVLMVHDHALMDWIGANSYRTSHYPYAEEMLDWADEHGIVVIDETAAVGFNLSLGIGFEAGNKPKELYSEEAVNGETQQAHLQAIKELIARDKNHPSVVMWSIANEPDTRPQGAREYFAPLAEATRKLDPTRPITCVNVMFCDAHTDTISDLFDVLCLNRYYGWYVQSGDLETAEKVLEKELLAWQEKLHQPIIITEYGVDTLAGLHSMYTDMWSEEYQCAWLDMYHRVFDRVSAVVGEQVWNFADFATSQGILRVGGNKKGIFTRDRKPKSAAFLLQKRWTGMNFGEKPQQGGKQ

Molecule: N#CC1=C(C#N)C(=O)C(Cl)=C(Cl)C1=O [DDQ, 2,3-dichloro-5,6-dicyanobenzoquainone]
- blue color development with oxidizing agent (β-Glucuronidase (GUS)): poorest performance for blue color development

Molecule: O.O.O.O.O.O.[Cl-].[Cl-].[Cl-].[Fe+3] [FeCl3, FeCl3. 6H2O]
- blue color development with oxidizing agent (β-Glucuronidase (GUS)): strongest visual color intensity

Molecule: NC1CCCCC1.O=C(O)[C@H]1O[C@@H](Oc2c[nH]c3ccccc23)[C@H](O)[C@@H](O)[C@@H]1O [IBDG, indoxyl-β-D-glucuronide cyclohexylammonium salt]
- visual color formation via GUS catalyzed hydrolysis (β-Glucuronidase (GUS)): relatively faint color

Molecule: CC(=O)Oc1ccc(N=C2C=CC(=O)C=C2)cc1 [IPA, indophenyl acetate]
- Km [1]: ~700 µM
- Km [2]: ~1500 µM

Molecule: O=C(O)[C@H]1O[C@@H](Oc2ccc([N+](=O)[O-])cc2)[C@H](O)[C@@H](O)[C@@H]1O [PNPG, p-nitrophenyl-β-D-glucuronide]
- visual color formation via GUS catalyzed hydrolysis (β-Glucuronidase (GUS); in solution for 30 min): relatively faint color

Molecule: CNC(=O)Oc1cccc2c1OC(C)(C)O2 [bendiocarb]
- pIC50 [2]: 7.70
- apparent saturated inhibition concentration [2]: around 1 μM
- detection limit (LOD) [2]: ca. 10 nM

Molecule: CNC(=O)Oc1cccc2ccccc12 [carbaryl]
- pIC50 [2]: 7.30
- apparent saturated inhibition concentration [2]: ~5 µM
- detection limit (LOD) [2]: ~100 nM

Molecule: OCC(O)CO [glycerol]
- effect of additive on AChE activity in solution [3]: did not produce a decrease in AChE activity

Molecule: CCOC(=O)CC(SP(=S)(OC)OC)C(=O)OCC (stereo not shown) [malathion]
- pIC50 [2]: ~8.00
- LOD [2]: ca. 10 μM

Molecule: CCOP(=O)(OCC)Oc1ccc([N+](=O)[O-])cc1 [paraoxon]
- detection limit (LOD) ([4]; S/N=3, Ellman paper sensor): ca. 100 nM
- inhibition of AChE ([4]; at 100 nM inhibitor): ~25%
- LOD [2]: ca. 10 μM
- detection limit [5]: ~10 nm
- inhibition of AChE ([6]; 1 mM paraoxon sprayed on apple and head lettuce): ~50%
- inhibition of AChE ([6]; 50 mM paraoxon sprayed on apple and head lettuce): almost complete inhibition

Molecule: Triton X-100
- effect of additive on AChE activity in solution [3]: No significant loss of AChE activity

Molecule: aflatoxin B1 [AfB1]
- detection limit (LOD) [4]: ~30 nM
- inhibition of AChE ([4]; 0.1 µM): ~45%
- pIC50 ([4]; read-out: IC50 for inhibition of AChE): ~7.00

Source: patent US9157109B2, “Biosensors utilizing ink jet-printed biomolecule compatible sol gel inks and uses thereof” (McMaster University, priority 2009, dated 2015)
